The record followed here is US11696917B2, “Agent enhancing antitumor effect using pyrazolo[3,4-d]pyrimidine compound” (TAIHO PHARMACEUTICAL CO., LTD., priority 2017, dated 2023).

For orientation: IC50 means the concentration that gives 50% inhibition.

Where two headings read alike, the source gives them in different places.

Experiment [1] has as its target purified recombinant human HER2 protein (Homo sapiens (Human), UniProt P04626). Briefly: Measurement of inhibitory effect on HER2-phosphorylating activity (in vitro). The format is biochemical. The conditions noted are these: ATP 6 μM, 25° C., 40 minutes. An excerpt:
The purified recombinant human HER2 protein used in the test was purchased from Carna Biosciences, Inc.
For the inhibitory activity measurement of each compound, the synthesis example compound was first serially diluted with dimethyl sulfoxide (DMSO).

Experiment [2] has as its system HER2-overexpressing human stomach cancer cell line NCI-N87 cells. Briefly: Cytostatic activity against HER2-expressing cell line (NCI-N87), CellTiter-Glo. Type of experiment: cell-based. Particulars: 3-day culture, read-out: NCI-N87 cell growth inhibitory activity IC50 value. An excerpt:
(§1) HER2-overexpressing human stomach cancer cell line NCI-N87 cells were suspended in RPMI1640 medium (manufactured by Life Technologies Corp.) containing 10% fetal bovine serum. Meanwhile, EGFR-overexpressing highly activated human epithelioid cancer cell line A431 cells were suspended in DMEM, high glucose medium (manufactured by Life Technologies Corp.) containing 10% fetal bovine serum. Subsequently, each cell suspension was inoculated to each well of a 384-well flat-bottom microplate and cultured at 37° C. for 1 day in an incubator containing 5% carbon dioxide. The synthesis example compound was dissolved in DMSO, and the test compound was diluted into a concentration of 500 times the final concentration using DMSO. The solution of the test compound in DMSO was diluted with the medium used in the suspension of each cell line, and this solution was added at a final concentration of DMSO of 0.2% to each well of the cell culture plate, followed by further culture at 37° C. for 3 days in an incubator containing 5% carbon dioxide.
For orientation: Cellular ATP, detected with luciferase, serves as a proxy for viable cell number.

The test system of experiment [3] is EGFR-overexpressing highly activated human epithelioid cancer cell line A431 cells. Briefly: Cytostatic activity against EGFR-expressing cell line (A431), CellTiter-Glo. The format is cell-based. Particulars: 3-day culture, read-out: A431 cell growth inhibitory activity IC50 value.
Excerpt: as §1
Rate of growth inhibition (%)=(C−T)/(C)×100 T: Luminescence intensity of a well supplemented with the test compound C: Luminescence intensity of a well not supplemented with the test compound

As to `C=CC(=O)N1CCC[C@@H](n2nc(C(=O)Nc3cccc4c(CC(=O)N(C)C)ccnc34)c3c(N)ncnc32)C1` [compound 41], the IC50 in experiment [1] is 18 nM.
As to `C=CC(=O)N1CCC[C@@H](n2nc(C(=O)Nc3ccc(CC(=O)N(C)C)c(Cl)c3)c3c(N)ncnc32)C1` [compound 8], the IC50 in experiment [1] worked out at 9.2 nM; in experiment [2], 8 nM; in experiment [3], 955 nM.
With `C=CC(=O)N1CCC[C@@H](n2nc(C(=O)Nc3ccc(OC(=O)N(C)C)c(F)c3F)c3c(N)ncnc32)C1` [compound 35], the results for the 50% inhibitory concentration (IC50) in experiment [1], in experiment [2] and in experiment [3] were 16 nM, 8 nM and 2610 nM, respectively.
For `C=CC(=O)N1CC[C@@H](n2nc(C(=O)Nc3ccc(OC(=O)N(C)C)c4ccccc34)c3c(N)ncnc32)C1` [compound 58], the IC50 in experiment [3] worked out at 681 nM.
On to `C=CC(=O)N1CCC[C@@H](n2nc(C(=O)Nc3cc(F)c(CC(=O)N(C)C)cc3Cl)c3c(N)ncnc32)C1` [compound 18], for which the figures for the IC50 in experiment [1], in experiment [2] and in experiment [3] were 4.4 nM, 12 nM and 1060 nM, respectively.
As to `C=CC(=O)N1CCC[C@@H](n2nc(C(=O)Nc3cc(C#N)c(CC(=O)N(C)C)cc3C)c3c(N)ncnc32)C1` [compound 24], the IC50 in experiment [1] worked out at 38 nM.
On to `C=CC(=O)N1CCC[C@@H](n2nc(C(=O)Nc3ccc(CC(=O)N(C)C)c(F)c3C)c3c(N)ncnc32)C1` [compound 12], for which the results for the half-maximal inhibitory concentration (IC50) in experiment [1], in experiment [2] and in experiment [3] were 7.5 nM, 3 nM and 340 nM, respectively.
As for `C=CC(=O)N1CCCC(n2nc(Nc3ccc(C(=O)N(C)C)cc3)c3c(N)ncnc32)C1` (stereo not drawn) [compound 21], in experiment [1], the 50% inhibitory concentration (IC50) turned out to be 26 nM.
As to “(R)-4-(1-(1-acryloylpyrimidin-3-yl)-4-amino-1H-pyrazolo[3,4-d]pyrimidine-3-carboxamido)-3-methylphenyl methyl(phenyl) carbamate [compound 68]”, the IC50 in experiment [1] was 7.7 nM.
As to `C=CC(=O)N1CC[C@@H](n2nc(C(=O)Nc3ccc(CC(=O)N(C)C)cc3C=C)c3c(N)ncnc32)C1` [compound 60], the IC50 in experiment [1] came out at 20 nM; in experiment [3], 5260 nM.
Turning to `C=CC(=O)N1CCC[C@@H](n2nc(C(=O)Nc3ccc(CC(=O)N(C)C)c(F)c3Cl)c3c(N)ncnc32)C1` [compound 50], the figures for the IC50 in experiment [1], in experiment [2] and in experiment [3] were 2.9 nM, 4 nM and 277 nM, respectively.
Turning to `C=CC(=O)N1CC[C@@H](n2nc(C(=O)Nc3ccc(CC(=O)N(C)C)cc3Cl)c3c(N)ncnc32)C1` [compound 54], the IC50 in experiment [1] was determined as 31 nM.
In the case of `C=CC(=O)N1CCC[C@@H](n2nc(C(=O)Nc3ccc(OC(=O)N(C)C)c(F)c3)c3c(N)ncnc32)C1` [compound 34], the IC50 in experiment [2] amounted to 32 nM; in experiment [3], 2210 nM.
For the molecule `C=CC(=O)N1CCC[C@@H](n2nc(C(=O)Nc3ccc(CC(=O)N(C)C)c(OC)c3)c3c(N)ncnc32)C1` [compound 40], the IC50 in experiment [1] was found to be 23 nM.
Consider `C=CC(=O)N1C[C@H](n2nc(C(=O)Nc3ccc(CC(=O)N(C)C)c(C)c3C)c3c(N)ncnc32)C[C@@H]1C` [compound 79], for which the figures for the IC50 in experiment [1] and in experiment [3] were 17 nM and 6940 nM, respectively.
As to `C=CC(=O)N1CC[C@@H](n2nc(C(=O)Nc3ccc(CC(=O)N(C)C)cc3Br)c3c(N)ncnc32)C1` [compound 62], the half-inhibitory concentration (IC50) in experiment [1] was 59 nM.
Take `C=CC(=O)N1CCC[C@@H](n2nc(C(=O)Nc3cc(Cl)c(CC(=O)N(C)C)cc3OC)c3c(N)ncnc32)C1` [compound 9]: the IC50 was 10 nM in experiment [1], 13 nM in experiment [2] and 2450 nM in experiment [3].
As for `C=CC(=O)N1CCC[C@@H](n2nc(C(=O)Nc3ccc(CC(=O)N(C)C)cc3N(C)C)c3c(N)ncnc32)C1` [compound 47], the IC50 in experiment [1] is 52 nM.
In the case of `C=CC(=O)N1CCC[C@@H](n2nc(C(=O)Nc3ccc(CC(=O)N(C)C)cc3C3CC3)c3c(N)ncnc32)C1` [compound 22], the half-inhibitory concentration (IC50) in experiment [1] is 48 nM.
As to `C=CC(=O)N1CC[C@@H](n2nc(C(=O)Nc3ccc(CC(=O)N(C)C)c(F)c3OC)c3c(N)ncnc32)C1` [compound 57], the results for the half-maximal inhibitory concentration (IC50) in experiment [1], in experiment [2] and in experiment [3] were 31 nM, 44 nM and 3390 nM, respectively.
For `C=CC(=O)N1CCC[C@@H](n2nc(C(=O)Nc3ccc(CC(=O)N(C)C)cc3-c3ccco3)c3c(N)ncnc32)C1` [compound 51], the IC50 in experiment [1] is 17 nM.
Take `C=CC(=O)N1CCC[C@@H](n2nc(C(=O)Nc3ccc(CC(=O)N(C)C)cc3)c3c(N)ncnc32)C1` [compound 28]: the IC50 in experiment [1] turned out to be 46 nM.
As for `C=CC(=O)N1C[C@H](n2nc(C(=O)Nc3ccc(CC(=O)N(C)C)cc3Cl)c3c(N)ncnc32)C[C@@H]1C` [compound 78], the IC50 in experiment [3] is 5450 nM.
Consider `C=CC(=O)N1CC[C@@H](n2nc(C(=O)Nc3ccc(OC(=O)N(C)C)cc3C)c3c(N)ncnc32)C1` [compound 63], for which the figures for the IC50 in experiment [2] and in experiment [3] were 11 nM and 1670 nM, respectively.
In the case of `C=CC(=O)N1CC[C@@H](n2nc(C(=O)Nc3cc(Cl)c(CC(=O)N(C)C)cc3C)c3c(N)ncnc32)C1` [compound 67], the concentration for half-maximal inhibition (IC50) in experiment [1] came out at 72 nM.
Consider `C=CC(=O)N1CCC[C@@H](n2nc(C(=O)Nc3ccc(CC(=O)N(C)C)cc3CC)c3c(N)ncnc32)C1` [compound 49], for which, in experiment [1], the IC50 was determined as 20 nM.
As to `C=CC(=O)N1CC[C@@H](n2nc(C(=O)Nc3ccc(CC(=O)N(C)C)c(F)c3Cl)c3c(N)ncnc32)C1` [compound 65], in experiment [1], the IC50 is 20 nM.
As to `C=CC(=O)N1CCC[C@@H](n2nc(C(=O)Nc3ccc(OC(=O)N(C)C)c4ccccc34)c3c(N)ncnc32)C1` [compound 33], in experiment [3], the IC50 amounted to 263 nM.
For `C=CC(=O)N1CC[C@@H](n2nc(C(=O)Nc3ccc(CC(=O)N(C)C)c(Cl)c3OC)c3c(N)ncnc32)C1` [compound 55], the IC50 in experiment [1] turned out to be 49 nM.
As to `C=CC(=O)N1CC[C@@H](n2nc(C(=O)Nc3ccc(CC(=O)N(C)C)c4ccccc34)c3c(N)ncnc32)C1` [compound 61], the results for the IC50 in experiment [1] and in experiment [3] were 13 nM and 1100 nM, respectively.
For the molecule `C=CC(=O)N1CCC[C@@H](n2nc(C(=O)Nc3ccc(CC(=O)N4CCCC4)cc3C)c3c(N)ncnc32)C1` [compound 71, (R)-1-(1-acryloylpiperidin-3-yl)-4-amino-N-(2-methyl-4-(2-oxo-2-(pyrrolidin-1-yl)ethyl)phenyl)-1H-pyrazolo[3,4-d]pyrimidine-3-carboxamide], the IC50 in experiment [2] (Homo sapiens, NCI-N87, 72 h) worked out at 26 nM; in experiment [3] (Homo sapiens, A-431, 72 h) it was 2120 nM.
Turning to `C=CC(=O)N1CCC[C@@H](n2nc(C(=O)Nc3ccc(NC(=O)N(C)C)cc3C)c3c(N)ncnc32)C1` [compound 74, (R)-1-(1-acryloylpiperidin-3-yl)-4-amino-N-(4-(3,3-dimethylureido)-2-methylphenyl)-1H-pyrazolo[3,4-d]pyrimidine-3-carboxamide], the IC50 in experiment [2] (Homo sapiens, NCI-N87, 72 h) came out at 18 nM; in experiment [3] (Homo sapiens, A-431, 72 h), 8080 nM.
For the molecule `C=CC(=O)N1CCC[C@@H](n2nc(C(=O)Nc3ccc(CC(=O)N(C)C)cc3-c3ccoc3)c3c(N)ncnc32)C1` [compound 52], the IC50 in experiment [1] is 13 nM.
Consider `C=CC(=O)N1CCC[C@@H](n2nc(C(=O)Nc3ccc(CC(=O)N(C)C)cc3C#N)c3c(N)ncnc32)C1` [compound 23], for which the IC50 in experiment [1] was 20 nM.
Turning to `C=CC(=O)N1CC[C@@H](n2nc(C(=O)Nc3ccc(CC(=O)N(C)C)c(C)c3C)c3c(N)ncnc32)C1` [compound 59], the 50% inhibitory concentration (IC50) in experiment [1] is 45 nM.
For the molecule `C=CC(=O)N1CC[C@@H](n2nc(C(=O)Nc3ccc(CC(=O)N(C)C)c(F)c3C)c3c(N)ncnc32)C1` [compound 56], the results for the IC50 in experiment [1], in experiment [2] and in experiment [3] were 22 nM, 31 nM and 2610 nM, respectively.
For the molecule `C=CC(=O)N1CCC[C@@H](n2nc(C(=O)Nc3cc(Cl)c(CC(=O)N(C)C)cc3Cl)c3c(N)ncnc32)C1` [compound 20], the IC50 in experiment [1] was 13 nM.
Consider “(R)-4-(1-(1-acryloylpyrimidin-3-yl)-4-amino-1H-pyrazolo[3,4-d]pyrimidine-3-carboxamido)-3-methylphenyl piperidine-1-carboxylate [compound 70]”, for which, in experiment [1], the IC50 was determined as 10 nM.
Same read-out and setting: to `C=CC(=O)N1CCC[C@@H](n2nc(C(=O)Nc3ccc(CC(=O)N(C)C)c(F)c3)c3c(N)ncnc32)C1` [compound 42] belongs 18 nM.
For `C=CC(=O)N1CCC[C@@H](n2nc(C(=O)Nc3ccc(CC(=O)N(C)C)cc3C=C)c3c(N)ncnc32)C1` [compound 48], the 50% inhibitory concentration (IC50) in experiment [1] was determined as 8.5 nM; in experiment [2], 4 nM; in experiment [3] it was 314 nM.
On to “(R)-4-(1-(1-acryloylpyrimidin-3-yl)-4-amino-1H-pyrazolo[3,4-d]pyrimidine-3-carboxamido)-3-methylphenyl pyrrolidine-1-carboxylate [compound 69]”, for which the IC50 in experiment [1] came out at 9.2 nM.
